The values that follow come from ChEMBL document CHEMBL1201862, “PubChem BioAssay data set” (2004).

In assay [1] the target is T1, Hexokinase HKDC1 (Homo sapiens, UniProt Q2TB90).
T1 sequence (Q2TB90 whole entry): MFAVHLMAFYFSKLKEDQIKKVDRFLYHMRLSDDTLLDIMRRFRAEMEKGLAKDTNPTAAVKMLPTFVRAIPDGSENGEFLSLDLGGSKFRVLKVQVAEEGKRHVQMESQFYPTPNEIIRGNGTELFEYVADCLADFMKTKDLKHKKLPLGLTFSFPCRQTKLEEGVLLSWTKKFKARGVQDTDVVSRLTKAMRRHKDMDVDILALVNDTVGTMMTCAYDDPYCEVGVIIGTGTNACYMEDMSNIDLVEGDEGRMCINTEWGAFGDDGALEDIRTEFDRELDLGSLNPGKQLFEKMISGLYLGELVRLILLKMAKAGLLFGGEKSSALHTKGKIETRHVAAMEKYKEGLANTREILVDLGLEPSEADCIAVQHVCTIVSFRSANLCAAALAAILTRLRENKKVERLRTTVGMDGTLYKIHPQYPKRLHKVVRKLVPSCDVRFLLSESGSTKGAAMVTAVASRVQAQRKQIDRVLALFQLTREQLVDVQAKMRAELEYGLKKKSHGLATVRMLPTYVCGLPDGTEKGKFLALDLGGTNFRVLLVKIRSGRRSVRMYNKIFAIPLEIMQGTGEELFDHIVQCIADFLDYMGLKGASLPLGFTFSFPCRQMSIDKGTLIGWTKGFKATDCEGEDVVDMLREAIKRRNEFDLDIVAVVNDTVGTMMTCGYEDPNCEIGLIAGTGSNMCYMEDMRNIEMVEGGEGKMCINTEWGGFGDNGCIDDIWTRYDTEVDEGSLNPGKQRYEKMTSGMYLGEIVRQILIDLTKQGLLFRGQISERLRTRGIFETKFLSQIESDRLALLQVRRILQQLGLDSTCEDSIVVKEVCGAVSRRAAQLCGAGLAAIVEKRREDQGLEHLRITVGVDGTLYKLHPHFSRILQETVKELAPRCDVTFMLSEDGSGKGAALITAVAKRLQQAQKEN
Put plainly: HKDC1 hexokinase activators, dose response, biochemical, W721R variant (AID 504730). It counts as functional.

Assay [2] has as its target T2, Zinc finger protein mex-5 (Caenorhabditis elegans, UniProt Q9XUB2).
T2 sequence (Q9XUB2 whole entry): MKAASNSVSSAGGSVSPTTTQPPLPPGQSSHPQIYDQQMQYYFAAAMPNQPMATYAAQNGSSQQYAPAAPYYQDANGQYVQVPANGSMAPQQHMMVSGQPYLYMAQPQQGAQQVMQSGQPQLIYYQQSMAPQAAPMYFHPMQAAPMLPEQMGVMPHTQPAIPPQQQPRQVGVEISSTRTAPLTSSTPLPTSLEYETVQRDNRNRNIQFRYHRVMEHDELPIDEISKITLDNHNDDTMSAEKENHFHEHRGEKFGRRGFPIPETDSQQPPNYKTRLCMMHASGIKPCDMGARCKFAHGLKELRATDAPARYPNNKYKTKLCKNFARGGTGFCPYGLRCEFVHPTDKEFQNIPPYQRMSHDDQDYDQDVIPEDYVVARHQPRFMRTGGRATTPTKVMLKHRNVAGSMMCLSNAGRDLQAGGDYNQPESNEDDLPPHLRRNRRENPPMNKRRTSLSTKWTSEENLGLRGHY
As to the kind of experiment: MEX-5/TCR-2 RNA interaction inhibitors, dose response, biochemical, C. elegans, fluorescence polarization (AID 1960). (Fluorescence polarisation rises when a labelled molecule tumbles more slowly, as on binding a larger partner.)

The target in assay [3] is Mothers against decapentaplegic homolog 3 (Homo sapiens, UniProt P84022). Put plainly: SMAD3 transcription factor inhibitors, dose response (AID 715). Format: functional.
The target of assay [4] is Peroxisome proliferator-activated receptor gamma/Nuclear receptor corepressor 2 (Homo sapiens, UniProt P37231+Q9Y618). Format: functional.
The target of assay [5] is T3, Sentrin-specific protease 8 (Homo sapiens, UniProt Q96LD8).
T3 sequence (Q96LD8 whole entry): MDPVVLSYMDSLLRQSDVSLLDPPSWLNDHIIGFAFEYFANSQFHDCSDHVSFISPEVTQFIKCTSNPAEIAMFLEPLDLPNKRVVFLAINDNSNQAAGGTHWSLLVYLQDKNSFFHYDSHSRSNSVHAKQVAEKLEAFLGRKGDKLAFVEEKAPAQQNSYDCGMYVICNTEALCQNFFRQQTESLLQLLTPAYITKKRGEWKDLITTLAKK
Put plainly: SENP8 protease inhibitors, SAR follow-up, biochemical, luminescence (AID 504501). Format: functional.

Assay [6] deals with T4, Sentrin-specific protease 7 (Homo sapiens, UniProt Q9BQF6).
T4 sequence (Q9BQF6 whole entry): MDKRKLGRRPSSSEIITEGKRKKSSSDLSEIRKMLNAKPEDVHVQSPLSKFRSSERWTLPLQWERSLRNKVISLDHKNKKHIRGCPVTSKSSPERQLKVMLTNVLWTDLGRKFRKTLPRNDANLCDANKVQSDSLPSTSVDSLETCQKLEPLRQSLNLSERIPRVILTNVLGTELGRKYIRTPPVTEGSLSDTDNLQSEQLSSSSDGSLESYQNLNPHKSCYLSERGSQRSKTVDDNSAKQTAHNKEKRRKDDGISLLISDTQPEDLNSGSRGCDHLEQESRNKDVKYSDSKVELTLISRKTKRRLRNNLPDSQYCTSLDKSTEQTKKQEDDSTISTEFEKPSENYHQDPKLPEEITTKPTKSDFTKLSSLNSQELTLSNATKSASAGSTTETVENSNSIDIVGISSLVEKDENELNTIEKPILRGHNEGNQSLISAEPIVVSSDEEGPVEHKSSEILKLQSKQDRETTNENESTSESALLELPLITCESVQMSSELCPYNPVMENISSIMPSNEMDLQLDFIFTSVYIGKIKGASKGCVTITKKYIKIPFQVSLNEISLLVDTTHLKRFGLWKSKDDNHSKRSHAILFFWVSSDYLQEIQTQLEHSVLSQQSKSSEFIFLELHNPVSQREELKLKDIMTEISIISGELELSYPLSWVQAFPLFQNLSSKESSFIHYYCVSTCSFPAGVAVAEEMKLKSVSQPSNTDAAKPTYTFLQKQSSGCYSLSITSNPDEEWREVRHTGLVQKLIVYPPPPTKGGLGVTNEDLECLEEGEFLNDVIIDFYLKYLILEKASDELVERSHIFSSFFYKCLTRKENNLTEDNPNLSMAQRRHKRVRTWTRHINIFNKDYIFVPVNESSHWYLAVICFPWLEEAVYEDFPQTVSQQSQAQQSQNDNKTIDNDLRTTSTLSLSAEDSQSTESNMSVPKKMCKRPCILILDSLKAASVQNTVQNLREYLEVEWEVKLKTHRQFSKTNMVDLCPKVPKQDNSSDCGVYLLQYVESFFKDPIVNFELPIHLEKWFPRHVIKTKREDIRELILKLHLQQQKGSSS
As to the kind of experiment: SENP7 protease inhibitors, SAR follow-up, biochemical, luminescence (AID 504497). It counts as functional.

Active and inactive are the calls of the source. Bounds are passed on as bounds.

Sequence of Mothers against decapentaplegic homolog 3 (P84022 whole entry): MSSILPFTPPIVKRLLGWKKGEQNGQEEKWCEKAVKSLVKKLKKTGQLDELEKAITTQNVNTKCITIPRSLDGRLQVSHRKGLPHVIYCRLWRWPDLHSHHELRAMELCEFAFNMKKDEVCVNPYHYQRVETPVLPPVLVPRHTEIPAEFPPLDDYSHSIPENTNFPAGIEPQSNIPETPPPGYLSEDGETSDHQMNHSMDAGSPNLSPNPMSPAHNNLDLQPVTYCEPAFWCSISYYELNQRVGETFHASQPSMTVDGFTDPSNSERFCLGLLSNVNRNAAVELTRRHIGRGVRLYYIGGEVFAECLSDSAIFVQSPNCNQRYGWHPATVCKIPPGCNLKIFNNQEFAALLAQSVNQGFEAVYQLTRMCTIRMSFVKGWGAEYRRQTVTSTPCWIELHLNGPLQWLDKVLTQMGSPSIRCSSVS
Sequence of Peroxisome proliferator-activated receptor gamma/Nuclear receptor corepressor 2 (P37231 whole entry): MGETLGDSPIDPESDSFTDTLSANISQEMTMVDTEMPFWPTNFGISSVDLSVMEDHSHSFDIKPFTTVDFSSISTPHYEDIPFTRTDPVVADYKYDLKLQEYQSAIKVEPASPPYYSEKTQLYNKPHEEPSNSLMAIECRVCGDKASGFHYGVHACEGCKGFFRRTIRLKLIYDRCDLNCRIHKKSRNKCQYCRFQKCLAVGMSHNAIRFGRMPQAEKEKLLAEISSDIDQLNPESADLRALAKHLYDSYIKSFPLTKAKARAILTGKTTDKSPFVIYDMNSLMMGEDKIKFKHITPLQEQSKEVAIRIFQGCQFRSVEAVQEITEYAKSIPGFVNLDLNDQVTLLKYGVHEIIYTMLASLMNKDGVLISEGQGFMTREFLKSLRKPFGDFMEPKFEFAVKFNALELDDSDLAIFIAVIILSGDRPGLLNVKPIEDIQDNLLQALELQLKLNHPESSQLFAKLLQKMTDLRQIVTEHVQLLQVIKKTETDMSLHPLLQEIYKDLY
Sequence of Peroxisome proliferator-activated receptor gamma/Nuclear receptor corepressor 2 (Q9Y618 whole entry): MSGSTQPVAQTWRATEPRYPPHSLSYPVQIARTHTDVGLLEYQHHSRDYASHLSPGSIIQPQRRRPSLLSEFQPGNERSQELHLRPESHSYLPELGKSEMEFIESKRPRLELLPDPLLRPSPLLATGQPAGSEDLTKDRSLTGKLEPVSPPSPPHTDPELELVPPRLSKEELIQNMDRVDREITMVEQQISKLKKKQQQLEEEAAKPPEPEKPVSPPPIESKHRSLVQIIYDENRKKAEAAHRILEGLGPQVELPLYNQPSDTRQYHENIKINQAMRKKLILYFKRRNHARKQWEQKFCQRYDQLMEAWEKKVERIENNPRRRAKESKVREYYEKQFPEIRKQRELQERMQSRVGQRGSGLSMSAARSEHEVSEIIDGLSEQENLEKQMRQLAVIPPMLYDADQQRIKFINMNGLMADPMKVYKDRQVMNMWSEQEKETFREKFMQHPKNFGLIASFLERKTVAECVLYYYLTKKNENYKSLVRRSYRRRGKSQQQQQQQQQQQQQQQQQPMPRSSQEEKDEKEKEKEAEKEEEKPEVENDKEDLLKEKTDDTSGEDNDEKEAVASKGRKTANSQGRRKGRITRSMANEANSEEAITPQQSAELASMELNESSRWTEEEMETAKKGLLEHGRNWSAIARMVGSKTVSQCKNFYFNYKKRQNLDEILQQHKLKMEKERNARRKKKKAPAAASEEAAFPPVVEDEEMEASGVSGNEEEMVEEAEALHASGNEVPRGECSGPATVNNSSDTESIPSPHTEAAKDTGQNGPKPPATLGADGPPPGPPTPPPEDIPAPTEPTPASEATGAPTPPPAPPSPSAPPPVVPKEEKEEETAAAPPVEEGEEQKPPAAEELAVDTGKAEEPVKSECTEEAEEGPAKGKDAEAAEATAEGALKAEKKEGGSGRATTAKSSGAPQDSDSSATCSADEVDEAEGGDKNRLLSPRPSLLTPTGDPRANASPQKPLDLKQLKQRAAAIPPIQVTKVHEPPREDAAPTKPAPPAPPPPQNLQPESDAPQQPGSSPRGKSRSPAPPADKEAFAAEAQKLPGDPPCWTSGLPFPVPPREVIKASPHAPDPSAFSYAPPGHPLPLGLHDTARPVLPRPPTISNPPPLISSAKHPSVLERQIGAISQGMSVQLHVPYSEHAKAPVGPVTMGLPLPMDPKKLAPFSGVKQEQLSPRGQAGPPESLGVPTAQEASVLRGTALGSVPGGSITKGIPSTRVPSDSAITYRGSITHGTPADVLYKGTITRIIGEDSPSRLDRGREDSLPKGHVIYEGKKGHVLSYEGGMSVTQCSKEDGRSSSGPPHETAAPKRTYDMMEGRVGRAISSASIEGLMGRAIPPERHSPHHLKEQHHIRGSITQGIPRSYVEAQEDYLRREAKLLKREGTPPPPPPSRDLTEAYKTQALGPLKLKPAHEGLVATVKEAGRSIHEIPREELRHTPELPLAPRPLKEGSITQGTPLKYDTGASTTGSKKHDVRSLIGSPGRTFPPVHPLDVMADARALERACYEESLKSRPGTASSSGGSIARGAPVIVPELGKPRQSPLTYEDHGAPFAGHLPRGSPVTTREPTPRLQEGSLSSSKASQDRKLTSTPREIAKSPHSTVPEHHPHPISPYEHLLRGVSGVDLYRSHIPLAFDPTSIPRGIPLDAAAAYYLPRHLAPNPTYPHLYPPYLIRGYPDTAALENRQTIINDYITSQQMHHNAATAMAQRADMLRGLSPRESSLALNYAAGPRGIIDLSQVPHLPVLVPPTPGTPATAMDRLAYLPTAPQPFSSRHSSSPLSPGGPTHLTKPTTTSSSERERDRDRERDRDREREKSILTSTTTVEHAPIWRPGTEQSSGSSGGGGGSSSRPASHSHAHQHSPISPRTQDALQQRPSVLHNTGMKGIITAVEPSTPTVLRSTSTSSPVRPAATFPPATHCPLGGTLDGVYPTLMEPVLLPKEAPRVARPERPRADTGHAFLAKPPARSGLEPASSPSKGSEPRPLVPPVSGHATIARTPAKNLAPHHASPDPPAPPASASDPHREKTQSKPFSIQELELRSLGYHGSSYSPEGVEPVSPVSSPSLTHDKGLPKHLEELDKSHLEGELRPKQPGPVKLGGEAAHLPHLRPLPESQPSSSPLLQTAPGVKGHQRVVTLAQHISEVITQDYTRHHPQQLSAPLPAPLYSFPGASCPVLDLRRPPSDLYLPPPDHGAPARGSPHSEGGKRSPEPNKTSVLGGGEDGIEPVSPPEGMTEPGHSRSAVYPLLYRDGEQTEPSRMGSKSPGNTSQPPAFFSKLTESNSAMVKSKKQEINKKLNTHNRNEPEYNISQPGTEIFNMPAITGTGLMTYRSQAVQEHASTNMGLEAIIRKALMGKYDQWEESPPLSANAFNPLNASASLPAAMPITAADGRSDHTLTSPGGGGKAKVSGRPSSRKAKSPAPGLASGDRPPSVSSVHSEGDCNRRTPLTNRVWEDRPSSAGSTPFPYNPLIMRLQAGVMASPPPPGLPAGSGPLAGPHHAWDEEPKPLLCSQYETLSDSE

`SC1=Nc2ccccc2C1`: the half-maximal effective concentration (EC50) – broadly, the concentration needed to bring the measured effect to its halfway point – in assay [1] is 18 µM (active).
Take `Cn1nc(-c2ccc(Cl)cc2)nc2c(=O)n(C)c(=O)nc1-2`: in assay [2], the EC50 is 16.8 µM (active). For the same compound, the IC50 – broadly, the concentration that inhibits the measured activity by half – in assay [3] was 39 nM (active); in assay [4], > 4.43 µM (active).
Turning to `CCCCNc1cc(NC(C)=O)cc2cc(OC)c(OC)cc12`, the IC50 in assay [5] and in assay [6] was > 99 µM (inactive) throughout.
